# Several values for one entry are separate records, joined by “and”; a condition that tells them apart may be missing. Equal entries are not always repeated.
# How the values were obtained:
# [1] = system: release of GH; assay: In vivo release of GH in male testosterone primed rats, 4-point assay method; parameters: species or system rat; details: i.v., individual values
# Experimental: In vivo effect of synthetic GHRH analogs on the release of
# GH in male testosterone primed rats. Results were
# calculated by the 4-point assay method.
# Doses injected are in μg/100 g. b.w., i.v.
# [2] = system: superfused pituitary cell system; assay: In vitro GH release, superfused pituitary cell system; assay type: cell-based, rat
# Experimental: The compounds of the present invention were tested both in vitro in rat cell culture and in vivo in rats to determine GHRH activity. The protocols are as follows:
# Twenty-four adult male or female Sprague-Dawley strain rats were decapitated for each experiment. After posterior lobes were removed, the anterior pituitaries were cut into small pieces and incubated in a Dubnoff incubator for 45 minutes at 37° C. in 10 ml. of oxygenated Medium 199 (GIBCO) containing 0.5% collagenase (Sigma Type 1), 0.25% bovine serum albumin (BSA) (Sigma RIA grade), and 5 μg./ml. Gentamicin Sulphate (Sigma). After this incubation, there were no apparent changes in the appearance of the tissue. However, the fragments could be easily dipsersed into single cells by repeated suction and expulsion from a Gilson Pipetman. After 30 to 60 Pipetman operations, the tissue fell apart; a second collagenase incubation was not usually necessary. The cell suspension was centrifuged at room temperature for 10 minutes at […]. The cell pellet was then resuspended in 1.0 ml. of medium. A small aliquot was diluted for counting the cells, and the rest or one suspension was divided into 2 equal volumes. Each volume (containing about 5× 10^6 cells, usually between 3.5 and 7.0×10^6) was mixed with 0.5 ml. Sephadex G-15 which had been equilibrated with previously oxygenated medium. The mixture of pituitary cells and Sephadex was transferred into 2 chambers of the superfusion apparatus and perfused with the medium. […]
# ACTH radioimmunoassays were performed on 100 μl aliquots of undiluted superfusion medium essentially as described elsewhere (14); however, the separation of bound and free ACTH was accomplished by a polyethylene glycol facilitated second antibody method. Rat GH was measured in aliquots of undiluted or diluted superfusates to determine either basal or stimulated secretion. […]
# [3] = system: release of pituitary GH; assay: In vivo release of pituitary GH after one single i.v. injection in female rats; parameters: species or system rat; details: for Relative Potency (based on the effect of hpGHRH at the actual time) / Responses in plasma GH in ng GH/ml: 1.0 ug/(female) rat i.v.; for Absolute Potency (based on the average value of the four samples at -1 min.): average GH level at -1 min. 63.5 ng GH/ml plasma
# Experimental: Adult female rats were used and were anesthetized with pentobarbital (6 mg/100 g, b.w.), injected i/p. 20 minutes after the injection of pentobarbital; blood samples were taken from the jugular vein (pretreated level) and immediately thereafter hpGH-RH^1-29 (as a control) or GH-RH^1-29 analogs were injected i.v. Blood samples were taken from the jugular vein 5, 15, 60 minutes after the injection. The blood samples were centrifuged, plasma was removed and the GH level was measured by RIA.
# In vivo Effects of synthetic GHRH analogs on the release
# of pituitary GH following one single i.v. injection of 1.0
substance,measurement,setting,value
"GH-RH^1-29: standard/control: fragment of the first 29 residues of human growth hormone releasing factor, amide",plasma Gh level,"[1]; 5 minutes after injection, dose 0.05 μg/100 g. b.w.",160 ng·mL and 540 ng·mL and 208 ng·mL and 191 ng·mL and 450 ng·mL and 286 ng·mL and 397 ng·mL
same,plasma Gh level,"[1]; 5 minutes after injection, dose 0.2 μg/100 g. b.w.",370 ng·mL and 620 ng·mL and 540 ng·mL and 610 ng·mL and 870 ng·mL and 410 ng·mL and 560 ng·mL
same,plasma Gh level,"[1]; 15 minutes after injection, dose 0.05 μg/100 g. b.w.",65 ng·mL and 241 ng·mL and 97 ng·mL and 70 ng·mL and 161 ng·mL and 145 ng·mL and 149 ng·mL
same,plasma Gh level,"[1]; 15 minutes after injection, dose 0.2 μg/100 g. b.w.",112 ng·mL and 280 ng·mL and 199 ng·mL and 261 ng·mL and 510 ng·mL and 161 ng·mL and 207 ng·mL
same,Released GH Level Average,[2]; peptides administered for 3 minutes at 10M^-9 Concentration,40.00 ng/mL
same,Released GH Level,"[2]; peptides administered for 3 minutes at 10M^-9 Concentration, individual values",62.50 ng/mL and 42.50 ng/mL and 20.50 ng/mL and 34.50 ng/mL
same,Potency %,"[2]; relative to GH-RH^1-29 standard, 3 minutes at 10M^-9 Concentration",100%
same,Relative Potency (based on the effect of hpGHRH at the actual time),[3]; time +5 min,100%
same,Responses in plasma GH in ng GH/ml,[3]; time +5 min,248 ng/mL
same,Absolute Potency (based on the average value of the four samples at -1 min.),[3]; time +5 min,390%
same,Relative Potency (based on the effect of hpGHRH at the actual time),[3]; time +15 min,100%
same,Responses in plasma GH in ng GH/ml,[3]; time +15 min,137 ng/mL
same,Absolute Potency (based on the average value of the four samples at -1 min.),[3]; time +15 min,215%
same,Relative Potency (based on the effect of hpGHRH at the actual time),[3]; time +60 min,100%
same,Responses in plasma GH in ng GH/ml,[3]; time +60 min,29 ng/mL
same,Absolute Potency (based on the average value of the four samples at -1 min.),[3]; time +60 min,45%
same,Relative Potency (based on the effect of hpGHRH at the actual time),[3]; time -1 min (pretreated level),100%
same,Responses in plasma GH in ng GH/ml,[3]; time -1 min (pretreated level),66 ng/mL
same,Absolute Potency (based on the average value of the four samples at -1 min.),[3]; time -1 min (pretreated level),103%

# Source: US4914189A, “Synthetic GHRH analogs” (The Adminstrators of the Tulane Educational Fund, priority 1987, dated 1990)
